# Reference: ChEMBL document CHEMBL5338795, “Novel Triazoles with Potent and Broad-Spectrum Antifungal Activity In Vitro and In Vivo” (J Med Chem, 2023)
# Tests used:
# Format in all cases: functional
# Candida tropicalis = experiment: Antifungal activity against Candida tropicalis ATCC 750 assessed as reduction in fungal growth incubated for 24 hrs by CLSI based microdilution analysis
# Cryptococcus neoformans = experiment: Antifungal activity against Cryptococcus neoformans CGMCC3 1563 assessed as reduction in fungal growth incubated for 72 hrs by CLSI based microdilution analysis
# Candida parapsilosis = experiment: Antifungal activity against Candida parapsilosis ATCC 22019 assessed as reduction in fungal growth incubated for 24 hrs by CLSI based microdilution analysis; conditions: Lodderomyces parapsilosis
# Candida albicans [1] = experiment: Antifungal activity against fluconazole-resistant Candida albicans 112869 assessed as inhibition of fungal growth measured for 24 hrs by CLSI based microdilution analysis
# Candida albicans [2] = experiment: Antifungal activity against Candida albicans SC5314 assessed as reduction in fungal growth incubated for 24 hrs by CLSI based microdilution analysis
# Candida albicans [3] = experiment: Antifungal activity against fluconazole-resistant Candida albicans 102 assessed as inhibition of fungal growth measured for 24 hrs by CLSI based microdilution analysis
# Nakaseomyces glabratus = experiment: Antifungal activity against Candida glabrata ATCC 15126 assessed as reduction in fungal growth incubated for 24 hrs by CLSI based microdilution analysis
# Aspergillus fumigatus = experiment: Antifungal activity against Aspergillus fumigatus CGMCC3 7795 assessed as reduction in fungal growth incubated for 48 hrs by CLSI based microdilution analysis
# Candida albicans [4] = experiment: Antifungal activity against fluconazole-resistant Candida albicans 13 assessed as inhibition of fungal growth measured for 24 hrs by CLSI based microdilution analysis
# Candida albicans [5] = experiment: Antifungal activity against fluconazole-resistant Candida albicans 15 assessed as inhibition of fungal growth measured for 24 hrs by CLSI based microdilution analysis
# Candida albicans [6] = experiment: Antifungal activity against fluconazole-resistant Candida albicans 24D assessed as inhibition of fungal growth measured for 24 hrs by CLSI based microdilution analysis
# [7] = tested on: Meyerozyma guilliermondii; experiment: Antifungal activity against Meyerozyma guilliermondii ATCC 6260 assessed as reduction in fungal growth incubated for 24 hrs by CLSI based microdilution analysis
# Candida albicans [8] = experiment: Antifungal activity against fluconazole-resistant Candida albicans 901 assessed as inhibition of fungal growth measured for 24 hrs by CLSI based microdilution analysis
structure (smiles),measurement,setting,value
O=[N+]([O-])c1ccc2c(ccn2CCN2CCN(CC(O)(Cn3cncn3)c3ccc(F)cc3F)CC2)c1 (configuration not stated),MIC80,Candida tropicalis,0.312 mg/L
same,MIC80,Cryptococcus neoformans,0.031 mg/L
same,MIC80,Candida parapsilosis,0.062 mg/L
same,MIC80,Candida albicans [1],0.062 mg/L
same,MIC80,Candida albicans [2],0.031 mg/L
same,MIC80,Candida albicans [3],0.031 mg/L
same,MIC80,Nakaseomyces glabratus,0.312 mg/L
same,MIC80,Aspergillus fumigatus,1.25 mg/L
same,MIC80,Candida albicans [4],0.062 mg/L
same,MIC80,Candida albicans [5],1.25 mg/L
same,MIC80,Candida albicans [6],0.031 mg/L
same,MIC80,[7],0.062 mg/L
same,MIC80,Candida albicans [8],1.25 mg/L
O=C(c1cccc2ccccc12)N1CCN(CC(O)(Cn2cncn2)c2ccc(F)cc2F)CC1 (configuration not stated),MIC80,Candida albicans [2],0.25 mg/L
OC(CN1CCN(CCn2ccc3cc(Cl)cnc32)CC1)(Cn1cncn1)c1ccc(F)cc1F (configuration not stated),MIC80,Candida albicans [2],0.062 mg/L
OC(CN1CCN(CCCCCCCCCCn2ccc3cc(Cl)ccc32)CC1)(Cn1cncn1)c1ccc(F)cc1F (configuration not stated),MIC80,Candida albicans [2],0.5 mg/L
COc1ccc2c(ccn2CCCCCN2CCN(CC(O)(Cn3cncn3)c3ccc(F)cc3F)CC2)c1 (configuration not stated),MIC80,Candida albicans [2],0.125 mg/L
CN1CCN(CC(O)(Cn2cncn2)c2ccc(F)cc2F)CC1 (configuration not stated),MIC80,Candida albicans [2],25 mg/L
COc1ccc2c(ccn2CCCCCCCCCCN2CCN(CC(O)(Cn3cncn3)c3ccc(F)cc3F)CC2)c1 (configuration not stated),MIC80,Candida albicans [2],0.5 mg/L
OC(CN1CCN(CCCCCCCCCCn2ccc3cc(Br)ccc32)CC1)(Cn1cncn1)c1ccc(F)cc1F (configuration not stated),MIC80,Candida albicans [2],0.25 mg/L
Cc1ccc2oc(=O)c(C(=O)N3CCN(CC(O)(Cn4cncn4)c4ccc(F)cc4F)CC3)cc2c1 (configuration not stated),MIC80,Candida albicans [2],0.125 mg/L
O=S(=O)(c1ccc(Cl)cc1)N1CCN(CC(O)(Cn2cncn2)c2ccc(F)cc2F)CC1 (configuration not stated),MIC80,Candida albicans [2],0.125 mg/L
O=C(c1cc2cc(F)ccc2oc1=O)N1CCN(CC(O)(Cn2cncn2)c2ccc(F)cc2F)CC1 (configuration not stated),MIC80,Candida albicans [2],0.25 mg/L
O=C(c1ccc2c(c1)OCO2)N1CCN(CC(O)(Cn2cncn2)c2ccc(F)cc2F)CC1 (configuration not stated),MIC80,Candida albicans [2],0.25 mg/L
COc1ccc2c(ccn2CCCCCCN2CCN(CC(O)(Cn3cncn3)c3ccc(F)cc3F)CC2)c1 (configuration not stated),MIC80,Candida albicans [2],0.25 mg/L
OC(CN1CCN(CCn2ncc3ccccc32)CC1)(Cn1cncn1)c1ccc(F)cc1F (configuration not stated),MIC80,Candida albicans [2],0.062 mg/L
OC(CN1CCN(CCCCCCCCCn2ccc3cc(Br)ccc32)CC1)(Cn1cncn1)c1ccc(F)cc1F (configuration not stated),MIC80,Candida albicans [2],0.25 mg/L
OC(CN1CCN(CCCn2ccc3ccc(Cl)cc32)CC1)(Cn1cncn1)c1ccc(F)cc1F (configuration not stated),MIC80,Candida tropicalis,0.625 mg/L
same,MIC80,Cryptococcus neoformans,0.031 mg/L
same,MIC80,Candida parapsilosis,0.125 mg/L
same,MIC80,Candida albicans [1],0.25 mg/L
same,MIC80,Candida albicans [2],0.062 mg/L
same,MIC80,Candida albicans [3],0.062 mg/L
same,MIC80,Nakaseomyces glabratus,0.312 mg/L
same,MIC80,Aspergillus fumigatus,5 mg/L
same,MIC80,Candida albicans [4],0.062 mg/L
same,MIC80,Candida albicans [5],2.5 mg/L
same,MIC80,Candida albicans [6],0.062 mg/L
same,MIC80,[7],0.125 mg/L
same,MIC80,Candida albicans [8],5 mg/L
OC(CN1CCN(CCn2ccc3ccccc32)CC1)(Cn1cncn1)c1ccc(F)cc1F (configuration not stated),MIC80,Candida albicans [2],0.031 mg/L
OC(CN1CCN(CCOc2ccc3c(c2)OCO3)CC1)(Cn1cncn1)c1ccc(F)cc1F (configuration not stated),MIC80,Candida albicans [2],0.125 mg/L
OC(CN1CCN(CCCCCn2ccc3ccc(F)cc32)CC1)(Cn1cncn1)c1ccc(F)cc1F (configuration not stated),MIC80,Candida albicans [2],0.125 mg/L
OC(CN1CCN(CCCn2ccc3cc(Cl)ccc32)CC1)(Cn1cncn1)c1ccc(F)cc1F (configuration not stated),MIC80,Candida tropicalis,0.625 mg/L
same,MIC80,Cryptococcus neoformans,0.031 mg/L
same,MIC80,Candida parapsilosis,0.062 mg/L
same,MIC80,Candida albicans [1],0.062 mg/L
same,MIC80,Candida albicans [2],0.031 mg/L
same,MIC80,Candida albicans [3],0.062 mg/L
same,MIC80,Nakaseomyces glabratus,0.312 mg/L
same,MIC80,Aspergillus fumigatus,5 mg/L
same,MIC80,Candida albicans [4],0.062 mg/L
same,MIC80,Candida albicans [5],2.5 mg/L
same,MIC80,Candida albicans [6],0.062 mg/L
same,MIC80,[7],0.125 mg/L
same,MIC80,Candida albicans [8],2.5 mg/L
O=C1C(=O)N(CCN2CCN(CC(O)(Cn3cncn3)c3ccc(F)cc3F)CC2)c2ccc(Br)cc21 (configuration not stated),MIC80,Candida albicans [2],0.062 mg/L
OC(CN1CCN(CCCCn2ccc3cc(Br)ccc32)CC1)(Cn1cncn1)c1ccc(F)cc1F (configuration not stated),MIC80,Candida tropicalis,0.312 mg/L
same,MIC80,Cryptococcus neoformans,0.031 mg/L
same,MIC80,Candida parapsilosis,0.062 mg/L
same,MIC80,Candida albicans [1],0.25 mg/L
same,MIC80,Candida albicans [2],0.062 mg/L
same,MIC80,Candida albicans [3],0.062 mg/L
same,MIC80,Nakaseomyces glabratus,0.312 mg/L
same,MIC80,Aspergillus fumigatus,1.25 mg/L
same,MIC80,Candida albicans [4],0.062 mg/L
same,MIC80,Candida albicans [5],1.25 mg/L
same,MIC80,Candida albicans [6],0.125 mg/L
same,MIC80,[7],0.125 mg/L
same,MIC80,Candida albicans [8],2.5 mg/L
OC(CN1CCN(CCn2ccc3cccnc32)CC1)(Cn1cncn1)c1ccc(F)cc1F (configuration not stated),MIC80,Candida albicans [2],0.062 mg/L
COc1ccc2c(ccn2CCN2CCN(CC(O)(Cn3cncn3)c3ccc(F)cc3F)CC2)c1 (configuration not stated),MIC80,Candida albicans [2],0.031 mg/L
OC(CN1CCN(CCc2cccc3ccccc23)CC1)(Cn1cncn1)c1ccc(F)cc1F (configuration not stated),MIC80,Candida albicans [2],0.25 mg/L
O=C(c1ccc2ccccc2c1)N1CCN(CC(O)(Cn2cncn2)c2ccc(F)cc2F)CC1 (configuration not stated),MIC80,Candida albicans [2],0.062 mg/L
COc1ccc(S(=O)(=O)N2CCN(CC(O)(Cn3cncn3)c3ccc(F)cc3F)CC2)cc1 (configuration not stated),MIC80,Candida albicans [2],0.25 mg/L
OC(CN1CCN(CCn2c3ccccc3c3cc(Cl)ccc32)CC1)(Cn1cncn1)c1ccc(F)cc1F (configuration not stated),MIC80,Candida albicans [2],0.25 mg/L
OC(CN1CCN(CCCCCCCCCn2ccc3cc(Cl)ccc32)CC1)(Cn1cncn1)c1ccc(F)cc1F (configuration not stated),MIC80,Candida albicans [2],0.25 mg/L
O[C@](CN1CCN(CCn2ncc3ccccc32)CC1)(Cn1cncn1)c1ccc(F)cc1F,MIC80,Candida albicans [2],50 mg/L
OC(CN1CCN(CCn2c3ccccc3c3cc(Br)ccc32)CC1)(Cn1cncn1)c1ccc(F)cc1F (configuration not stated),MIC80,Candida albicans [2],0.25 mg/L
OC(CN1CCN(CCn2c3ccccc3c3ccccc32)CC1)(Cn1cncn1)c1ccc(F)cc1F (configuration not stated),MIC80,Candida albicans [2],0.125 mg/L
O=C(c1ccc2ncccc2c1)N1CCN(CC(O)(Cn2cncn2)c2ccc(F)cc2F)CC1 (configuration not stated),MIC80,Candida albicans [2],0.125 mg/L
O=c1ccc2ccc(OCCN3CCN(CC(O)(Cn4cncn4)c4ccc(F)cc4F)CC3)cc2o1 (configuration not stated),MIC80,Candida albicans [2],0.25 mg/L
OC(CN1CCN(CCn2ccc3cc(Br)cnc32)CC1)(Cn1cncn1)c1ccc(F)cc1F (configuration not stated),MIC80,Candida albicans [2],0.062 mg/L
COc1ccc2c(cnn2CCN2CCN(CC(O)(Cn3cncn3)c3ccc(F)cc3F)CC2)c1 (configuration not stated),MIC80,Candida albicans [2],0.062 mg/L
O[C@](CN1CCN(CCn2ccc3cc(Br)ccc32)CC1)(Cn1cncn1)c1ccc(F)cc1F,MIC80,Candida albicans [2],25 mg/L
O=C(c1ccc2c(c1)OCCO2)N1CCN(CC(O)(Cn2cncn2)c2ccc(F)cc2F)CC1 (configuration not stated),MIC80,Candida albicans [2],0.25 mg/L
O=S(=O)(c1ccc(F)cc1)N1CCN(CC(O)(Cn2cncn2)c2ccc(F)cc2F)CC1 (configuration not stated),MIC80,Candida albicans [2],0.125 mg/L
OC(CN1CCN(CCn2ncc3cc(Br)ccc32)CC1)(Cn1cncn1)c1ccc(F)cc1F (configuration not stated),MIC80,Candida albicans [2],0.062 mg/L
O=C(c1cc2cc(Br)ccc2oc1=O)N1CCN(CC(O)(Cn2cncn2)c2ccc(F)cc2F)CC1 (configuration not stated),MIC80,Candida albicans [2],0.125 mg/L
Cc1ccc(S(=O)(=O)N2CCN(CC(O)(Cn3cncn3)c3ccc(F)cc3F)CC2)cc1 (configuration not stated),MIC80,Candida albicans [2],0.125 mg/L
OC(CN1CCN(CCCCCCn2ccc3cc(Br)ccc32)CC1)(Cn1cncn1)c1ccc(F)cc1F (configuration not stated),MIC80,Candida albicans [2],0.125 mg/L
OC(CN1CCN(CCCCCCn2ccc3ccc(F)cc32)CC1)(Cn1cncn1)c1ccc(F)cc1F (configuration not stated),MIC80,Candida albicans [2],0.125 mg/L
O=[N+]([O-])c1ccc2c(ccn2CCCN2CCN(CC(O)(Cn3cncn3)c3ccc(F)cc3F)CC2)c1 (configuration not stated),MIC80,Candida tropicalis,0.312 mg/L
same,MIC80,Cryptococcus neoformans,0.031 mg/L
same,MIC80,Candida parapsilosis,0.062 mg/L
same,MIC80,Candida albicans [1],0.062 mg/L
same,MIC80,Candida albicans [2],0.031 mg/L
same,MIC80,Candida albicans [3],0.031 mg/L
same,MIC80,Nakaseomyces glabratus,0.625 mg/L
same,MIC80,Aspergillus fumigatus,1.25 mg/L
same,MIC80,Candida albicans [4],0.062 mg/L
same,MIC80,Candida albicans [5],0.625 mg/L
same,MIC80,Candida albicans [6],0.031 mg/L
same,MIC80,[7],0.125 mg/L
same,MIC80,Candida albicans [8],1.25 mg/L
OC(CN1CCN(CCn2ncc3cc(I)ccc32)CC1)(Cn1cncn1)c1ccc(F)cc1F (configuration not stated),MIC80,Candida albicans [2],0.062 mg/L
O=C(c1cc2ccccc2oc1=O)N1CCN(CC(O)(Cn2cncn2)c2ccc(F)cc2F)CC1 (configuration not stated),MIC80,Candida albicans [2],0.062 mg/L
OC(CN1CCN(CCCCCn2ccc3cc(Br)ccc32)CC1)(Cn1cncn1)c1ccc(F)cc1F (configuration not stated),MIC80,Candida albicans [2],0.125 mg/L
O[C@@](CN1CCN(CCn2ncc3ccccc32)CC1)(Cn1cncn1)c1ccc(F)cc1F,MIC80,Candida albicans [2],0.031 mg/L
COc1ccc2c(ccn2CCCCCCCCCN2CCN(CC(O)(Cn3cncn3)c3ccc(F)cc3F)CC2)c1 (configuration not stated),MIC80,Candida albicans [2],0.5 mg/L
Cc1ccc2c(c1)C(=O)C(=O)N2CCN1CCN(CC(O)(Cn2cncn2)c2ccc(F)cc2F)CC1 (configuration not stated),MIC80,Candida albicans [2],0.125 mg/L
OC(CN1CCN(CCc2ccccc2)CC1)(Cn1cncn1)c1ccc(F)cc1F (configuration not stated),MIC80,Candida albicans [2],0.125 mg/L
